In brackets after ≈: the same amount, converted by molar mass. Like-named read-outs stand apart in the source and are kept apart here.
Legend:
[1] = Oxygen radical absorbance capacity (ORAC) assay
Protocol: The ORAC assay was performed following Ou et al., as modified by Garcés-Rimón et al.. All samples and reagents were dissolved in phosphate buffer (75 mM; pH 7.4). […] The fluorescence was recorded at 40 °C every 55 s for 95 min using a fluorimeter (SpectraMax M2; Molecular Devices, California, USA), with excitation and emission wavelengths of 480 and 520 nm, respectively. All samples were tested in triplicate. ORAC values were expressed as μmol of Trolox equivalents (TE)/μmol of pure compound.

[2] = DPPH free radical scavenging assay (RSA)
Protocol: For the 2,2′-diphenylpicrylhydrazyl (DPPH) assay, antioxidant compounds were dissolved in ethanol with a stock concentration of 4 mM and stirred for 24 h. DPPH (Alfa Aesar) was also dissolved in ethanol at 0.127 mM. Different compound solutions were prepared by serial dilutions of each stock solution ([…]). […] Amounts of 80 µL of each solution and 80 µL of DPPH were added in a 96-well plate. The absorbance was measured at different times (10, 20 and 30 min and 1 and 2 h) by a Multi-Detection Microplate Reader Synergy HT (λMAX = 515 nm). Radical scavenging activity (RSA, %) was calculated using Equation (1) (1) RSA(%)=ADPPH−AEXTRACT/ADPPH·100 where AEXTRACT and ADPPH correspond to the absorbance of DPPH with and without the extracts, respectively. Eight replicates were used for each compound and results were expressed as mean value ± standard deviation. The RSA half-maximal inhibitory concentration (IC50) values were calculated from the relationship curve of RSA versus concentrations by a non-linear fit using the software GraphPad Prism 7.

[3] = test system: human dermal fibroblasts (HDF); test: Cell viability, AlamarBlue assay; format: cell-based; conditions: 24 h, AlamarBlue, non-linear fit
Protocol: Cytotoxicity of selected antioxidant compounds was assessed using human dermal fibroblasts (HDF, Innoprot, P10856) and an AlamarBlue assay. Human fibroblasts were grown and maintained using Dulbecco’s Modified Eagle Medium high glucose (DMEM, Sigma Aldrich, D6171), supplemented with 10% Fetal Bovine Serum (FBS), 2% L-glutamine and 1% penicillin/streptomycin. Cells were incubated at 37 °C, 95% relative humidity and 5% CO2. Additionally, DMEM-high glucose, HEPES, no phenol red (Gibco, 2106329) was used to prepare the AlamarBlue solution. Stock solutions of the antioxidant compounds 3, 8, 15 and 17 were prepared in dimethyl sulfoxide (DMSO). Compound 7 was not soluble enough in DMSO to obtain a cell viability IC50 value. Serial dilutions of the antioxidant compounds were prepared using the previously mentioned stock solutions and DMEM. Final DMSO concentration was maintained lower than 1% v/v in the cell culture experiments. HDF were seeded at 9 × 10^4 cells/well in a 96-well plate and incubated for 24 h. The medium was replaced by the corresponding antioxidant solutions and incubated for an additional 24 h. Then, compounds were removed, cells were washed with Dulbecco’s Phosphate Buffered Saline (PBS, Sigma Aldrich) and treated with a 10% v/v AlamarBlue (Invitrogen) solution prepared in DMEM without phenol red. After 3 h of incubation, absorbance was monitored at 570 nm by a Multi-Detection Microplate Reader Synergy HT. Cells treated with DMEM without any antioxidant compound were used as the 100% viability control. Eight replicates were used for each antioxidant solution. IC50 values were obtained by a non-linear fit using the software GraphPad Prism 7.

[4] = test system: NADPH oxidase activity in segments of aorta from C57BL6/J mice; test: NADPH oxidase activity in aortic segments stimulated ex vivo with IL-1β; conditions: IL-1β 10 ng/mL 6 h
Protocol: Aortic segments from three-month-old C57BL6/J mice were incubated with IL-1β (10 ng/mL, 6 h, Sigma Aldrich) in the presence and in the absence of the different compounds that were added 30 min before stimulation.
The O2 production generated by NADPH oxidase was determined by a chemiluminescence assay. Briefly, endothelial cells or aortic segments were homogenized in phosphate buffer (50 mmol/L KH2PO4, 1 mmol/L EGTA, 150 mmol/L sucrose, pH 7.4). The reaction was started by the addition of a lucigenin (5 μmol/L) and NADPH (100 μmol/L; Sigma-Aldrich) mixture to the protein sample in a final volume of 250 μL. Chemiluminescence was determined every 2.4 s for 3 min in a microtiter plate luminometer (Enspire Perkin Elmer). Basal activity in the absence of NADPH was subtracted from each reading and normalized to protein concentration. Data were normalized vs. control situation.

[5] = test system: Saccharomyces cerevisiae strain BY4741; test: In vivo antioxidant capacity in stressed yeasts (growth recovery, survivors); format: cell-based
Protocol: Saccharomyces cerevisiae haploid strain BY4741 was used as described previously. Briefly, 20 μL of glycerol stock culture was revived in 5ml of YPD medium (1% yeast extract, 2% bacteriological peptone and 2% dextrose) at 28 °C, with shaking (210 rpm). Fifty microliters of 20-h-old culture was used to inoculate fresh 5ml YPD (control medium) or 5 mL of oxidative stress medium (YPOxD: YPOxD; 1% yeast extract, 2% bacteriological peptone, 1% dextrose and 3% H2O2). Stress (and control) was conducted during 16h at 28 °C, with shaking (220 rpm).
Growth rate was determined from growth kinetics using the BioScreen C plate-reader system (OY Growth Curves Ab Ldt., Helsinki, Finland). Stressed yeast cultures (16 h old) were used to inoculate 200 µl of fresh media to an initial OD595 of 0.05–0.07, being distributed in 100-well honeycomb plates (Oy Growth Curves) in triplicate per each condition (each different dose of each compound). Plates were then incubated at 28 °C for 72h, with shaking (High force), taking OD measurement each 15 min in the Bioscreen C. Maximum growth rate (μmax) and biomass production (carrying capacity) were determined in R using ‘Growthcurver’ package version 0.3 [24]. Growth curves were constructed in EXCEL, represented as mean ± SEM (standard error of mean). […] In addition, to measure survival after oxidative stress and antioxidant effectiveness of each compound, yeast cells from each challenge were serially diluted in 96-well plates, and each dilution was spotted (with a 8 × 6 stainless steel replica platter from SIGMA) in triplicate to determine viable colonies after 24–48 h at 28 °C. Survivors (mean ± SEM) were compared between treatments with one-way ANOVA, Fisher’s LSD test, with alpha at 0.05 for significance.

[6] = Aqueous thermodynamic solubility in H2O (UV); format: physicochemical; conditions: water, thermodynamic from solid
Excerpt: 4) Log P and aqueous solubility of selected compounds.
Table S2. Theoretical Log P values and aqueous thermodynamic solubility measured for
Comp `Chemical Structure MW LogP Calc Aqueous Solubility a
a Thermodynamic solubility in H 2O (UV). […]

In the case of `O=C(Nc1ccc(O)cc1)N(c1ccc(O)cc1)c1ccc(O)cc1` [Compound 17, N,N-bis(4-Hydroxyphenyl)-N′-(4′-hydroxyphenyl)urea], the ORAC [1] is reported as 19.4 ± 0.7 µmol of trolox/µmol of pure compound, the “ORAC” value ([1]; TE: Trolox Equivalents) is reported as greater than 19 TE and the “concentration down to which RSA ability is maintained independently of time” value ([2]; 10 min to 2 h) is reported as 0.25 mM. For the same compound, the “RSA capacity fold higher compared to resveratrol” value ([2]; after 10 min, from IC50) was 3.7 fold, the IC50 ([2]; compound needed to reach 50% RSA after 10 min, read-out: DPPH PSA IC50 10 min) was 17.9 µM and the RSA percentage ([2]; highest concentration 2 mM, 10 min) was roughly 72%. For the same compound, the IC50 ([2]; read-out: DPPH PSA IC50 2 h, compound needed to reach 50% RSA after 2 h) was 9.6 µM, the IC50 [3] was greater than 1400 µM and the IC50 ([3]; Homo sapiens, Fibroblast) was 1790 µM. For the same compound, the “effect on NADPH oxidase activity induced by IL-1β” value [4] was “significant inhibition of the IL-1β effects”, the “growth rate (r) recovery of stressed yeast” value ([5]; H2O2-stressed BY4741, doses 2, 20 and 40 μg) was “best performing antioxidant” and the “carrying capacity (k) recovery of stressed yeast” value ([5]; H2O2-stressed BY4741, each dose tested) was “able to recover the carrying capacity of yeast cells similarly as control antioxidants”. For the same compound, the solubility [6] was 620 ± 10 µg/mL (≈ 1840 µM) and the melting point was 186 to 187 °C (dec.).

Reference: PMC7555119, “Characterization of Novel Synthetic Polyphenols: Validation of Antioxidant and Vasculoprotective Activities” (Antioxidants, 2020)
